Several values for one entry are separate records, joined by “and”; a condition that tells them apart may be missing. Equal entries are not always repeated.
Experiments:
human PSMA [1] = assay: IFNγ ELISPOT, breaking of immune tolerance in human PSMA transgenic mice; type: in vivo, mouse
Method: Eight-to-10 week-old transgenic mice were immunized using PMED method with various PSMA DNA constructs in a prime/boost/boost regimen, two weeks apart between each vaccination. Alternatively, mice were primed with adenovirus vectors encoding the PSMA antigen at 1×10^9 viral particles in 50 μl (PBS) by intramuscular injection. The adenovirus vector (pShuttle-CMV vector from Stratagene) was modified to contain NheI and BgIII restriction sites within the multiple cloning site. The DNA encoding human PSMA modified was then restriction digested with NheI and BgIII, ligated into this vector and sequence confirmed. The pShuttle human PSMA modified vector was then recombined with the pAdEasy-1 vector and virus was propagated according to the AdEasy system (Stratagene). Twenty-days later, they were boosted with PMED as described above. In each of the regimens used, antigen specific T cell response was measured 7 days after the last immunization in an interferon-gamma (IFNγ) ELISPOT assay. The ELISPOT assay is similar to the sandwich enzyme-linked immunosorbent assay (ELISA). Briefly, a capture antibody specific to IFNγ BD Bioscience, #51-2525kc) is coated onto a polyvinylidene fluoride (PVDF) membrane in a microplate overnight at 4° C. The plate is blocked with serum/protein to prevent nonspecific binding to the antibody. […]

human PSMA [2] = assay: IFNγ ELISPOT of PBMCs, PSMA vaccine with or without anti-CTLA-4 in Indian rhesus macaques, human PSMA recall antigens; type: in vivo, rhesus macaque
Text: Three groups of male Indian rhesus macaques, five to six (#1 to 5 or 6) per each test group, were immunized with a nucleic acid (SEQ ID NO: 10) that encodes a human PSMA modified antigen (SEQ ID NO: 9) delivered by adenovirus (1e11 V.P. injected intramuscularly) followed by 2 DNA immunizations (8 actuations/immunization, 4 actuations per each right and left side of the lower abdomen) by PMED with 6 and 9 week intervals respectively. Animals in Groups 2 and 3 additionally received bilateral intradermal injections of 3 mg of CpG (PF-03512676) subsequently after the PMED immunization in proximity to each inguinal draining lymph node. Group 2 also received intravenous injections of anti-CTLA-4 monoclonal antibody (CP-675, 206) at 10 mg/kg and group 3 received intradermal injections of anti-CTLA-4 monoclonal antibody (CP-675, 206) at 5 mg/kg in proximity to each left and right inguinal vaccine draining lymph node at the time of the second PMED immunization.
Peripheral blood samples were collected from each animal sixteen days after the last PMED immunization. Peripheral blood mononuclear cells (PBMCs) were isolated from the samples and were subjected to an IFNγ ELISPOT assay to measure the PSMA specific T cell responses. Briefly, 4e5 PBMCs from individual animals were plated per well with pools of PSMA specific peptides each at 2 ug/ml hPSMA ECD protein at 10 ug/ml, rhesus PSMA ECD protein at 10 ug/ml or nonspecific control peptides (human HER2 peptide pool) each at 2 ug/ml in IFNγ ELISPOT plates. The plates were incubated for 16 hrs at 37° C. and 5% CO2 and washed and developed after incubation as per manufacturer's instruction. The number of IFNγ spot forming cells (SFC) were counted by CTL reader. Each condition was performed in duplicates.
A capture antibody specific to IFNγ([…]BD Bioscience, #51-2525kc) is coated onto a polyvinylidene fluoride (PVDF) membrane in a microplate overnight at 4° C. The plate is blocked with serum/protein to prevent nonspecific binding to the antibody. After blocking, effector cells (such as splenocytes isolated from immunized mice or PBMCs isolated from rhesus macaques) and targets (such as PSMA peptides from peptide library, target cells pulsed with antigen specific peptides or tumor cells expressing the relevant antigens) are added to the wells and incubated overnight at 37° C. in a 5% CO2 incubator. Cytokine secreted by effector cells are captured by the coating antibody on the surface of the PVDF membrane. After removing the cells and culture media, 100 μl of a biotinylated polyclonal anti-humanIFNγ antibody was added to each of the wells for detection. The spots are visualized by adding streptavidin-horseradish peroxidase and the precipitate substrate, 3-amino-9-ethylcarbazole (AEC), to yield a red color spot as per manufacturer's (Mabtech) protocol. Each spot represents a single cytokine producing T cell.

[3] = Group 2, vaccine + CpG 3 mg intradermal + aCTLA4 10 mg/kg intravenous (IV), rhesus PBMCs, normalized to 1e6 PBMCs, one cell per animal, 10 mg/kg
[4] = Group 3, vaccine + CpG 3 mg intradermal + aCTLA4 5 mg/kg intradermal (ID) near each inguinal node, rhesus PBMCs, normalized to 1e6 PBMCs, ^ too numerous to count, 5 mg/kg

PSMA modified: membrane-bound polypeptide of amino acids 15-750 of human PSMA, SEQ ID NO: 9; tested as DNA construct
# of positive (human PSMA [1]; Table 12, human PSMA transgenic mice with SFC>50 / mice tested): 2/10 | PSMA transgenic mice able to mount a T cell response to human PSMA (human PSMA [1]; human PSMA transgenic mice, SFC>50 positive): 20%

Tremelimumab: fully human IgG2 anti-CTLA-4 monoclonal antibody, CAS 745013-59-6, SEQ ID NOs:42 and 43
PSMA specific IFNγ SFC, recall antigen H1 (human PSMA [2]; [3]): 71.3 SFC and 2.5 SFC and 1063.8 SFC and 147.5 SFC and 402.5 SFC | PSMA specific IFNγ SFC, recall antigen H2 (human PSMA [2]; [3]): 292.5 SFC and 108.8 SFC and 82.5 SFC and 983.8 SFC and 573.8 SFC | PSMA specific IFNγ SFC, recall antigen P1 (human PSMA [2]; [3]): 23.8 SFC and 0.0 SFC and 58.8 SFC and 25.0 SFC and 15.0 SFC | PSMA specific IFNγ SFC, recall antigen P2 (human PSMA [2]; [3]): 57.5 SFC and 61.3 SFC and 41.3 SFC and 318.8 SFC and 312.5 SFC | PSMA specific IFNγ SFC, recall antigen P3 (human PSMA [2]; [3]): 1.3 SFC and 0.0 SFC and 7.5 SFC and 27.5 SFC and 5.0 SFC | PSMA specific IFNγ SFC, recall antigen hPSMA protein (human PSMA [2]; [3]): 278.8 SFC and 78.8 SFC and 1197.5 SFC and 1046.3 SFC and 707.5 SFC | PSMA specific IFNγ SFC, recall antigen H2 (human PSMA [2]; [4]): ≥ 1236.3^ SFC and ≥ 1247.5^ SFC and ≥ 1248.8^ SFC and 1173.8 SFC | PSMA specific IFNγ SFC, recall antigen hPSMA protein (human PSMA [2]; [4]): ≥ 1236.8^ SFC and ≥ 1247.5^ SFC and ≥ 1248.8^ SFC and ≥ 1242.5^ SFC | IFNγ T cell responses to PSMA specific peptides and proteins (human PSMA [2]; group 2: vaccine + CpG (PF-03512676) + systemic (intravenous) anti-CTLA-4 10 mg/kg, versus vaccine alone): modestly enhanced | IFNγ T cell responses to PSMA specific peptides and proteins (human PSMA [2]; group 3: vaccine + CpG + anti-CTLA-4 delivered locally by intradermal injections near the vaccine draining lymph node): more potent and significant enhancement of the response
